US11739122B2, “Glycopeptide antibiotic compounds, methods for producing the same, and uses thereof” (Academia Sinica, priority 2019, dated 2023)
Values after ≈ are worked out from the molar mass of the structure shown. Values joined by “and” are separate entries in the source; they are usually repeats but may differ in a detail not shown here. Equal entries are not always repeated. Where two headings read alike, the source gives them in different places. Blank lines part the entries; values can stand above or below the compound they belong to.

Tests used:
[1] = test system: E. faecalis ATCC 29302; assay: MIC, broth microdilution; format: cell-based
Method: (§1) Determination of Minimal Inhibitory Concentration (MIC) for Vancomycin, Teicoplanin and Tei-Analogs Versus Selected Strains
(§2) MICs were determined by the broth microdilution method. Specifically, 12 Colonies of the test strain were picked up from 18-24 hour agar cultures and freshly inoculated into broth mediums until reaching the turbidity of a 0.5 McFarland standard. The broth culture was adjusted with broth medium to approximately 1×10^8 CFUmL^−1. […] The plates were incubated in 37° C. for 18-24 hours and monitored for the wells of the positive control, where cells grew, and the wells of the negative control, where wells should not grow. The MIC value was determined for the concentration of a test compound, at which there was no visible growth in the well.

[2] = test system: MRSA ATCC 700698 hVISA; assay: MIC, broth microdilution; format: cell-based, Staphylococcus aureus
Method: as §1, §2

[3] = test system: S. aureus ATCC 29213; assay: MIC, broth microdilution; format: cell-based, Staphylococcus aureus
Method: as §1, §2

[4] = test system: MRSA ATCC 700789 VRSA; assay: MIC, broth microdilution; format: cell-based, Staphylococcus aureus
Method: as §1, §2

[5] = test system: MRSA ATCC 43300; assay: MIC, broth microdilution; format: cell-based, Staphylococcus aureus
Method: as §1, §2

[6] = test system: MRSA ATCC BAA-39; assay: MIC, broth microdilution; format: cell-based, Staphylococcus aureus
Method: as §1, §2

[7] = test system: MRSA ATCC BAA-38; assay: MIC, broth microdilution; format: cell-based, Staphylococcus aureus
Method: as §1, §2

[8] = test system: MRSA ATCC 700787 VRSA; assay: MIC, broth microdilution; format: cell-based, Staphylococcus aureus
Method: as §1, §2

[9] = test system: MRSA ATCC BAA-44; assay: MIC, broth microdilution; format: cell-based, Staphylococcus aureus
Method: as §1, §2

[10] = test system: VRE ATCC 700802 (vanB); assay: MIC, broth microdilution; format: cell-based, enterococci
Method: as §1, §2

[11] = test system: VRE ATCC 700425 (vanC); assay: MIC, broth microdilution; format: cell-based, enterococci
Method: as §1, §2

[12] = test system: VRE ATCC 700221 (vanA); assay: MIC, broth microdilution; format: cell-based, enterococci
Method: as §1, §2

[13] = test system: A. baumannii ATCC 19606; assay: MIC, broth microdilution; format: cell-based, Acinetobacter baumannii
Method: as §1, §2

[14] = test system: A. baumannii ATCC 19606; assay: Thin-section TEM, cell wall morphology; format: cell-based, Acinetobacter baumannii; conditions: AB ATCC 19606; 24 50 μM, colistin 3.2 μM, combination 25 μM each
[15] = test system: A. baumannii ATCC 19606; assay: In vivo efficacy, intranasal A. baumannii infection; design: species or system mice; conditions: BAL fluid, 24 hours post-inoculation; 24 and kanamycin 30, amikacin 15 mgkg^−1
Method: In Vivo Efficacy of r6,N-Acyl-Glc Tei Analogs
Female C57BL/6 mice (6 weeks of age; about 16-19 g, 3-5 mice per group) were intraperitoneally inoculated with 300 μL of MRSA ATCC 700787 suspension (about 10^7 CFUmL^−1). For intranasal A. baumannii (ATCC 19606) inoculation, mice were anesthetized, and inoculated intranasally with about 10^7-10^8 CFUmL^−1 A. baumannii in 50 μL of PBS. Treatments were started 1 hour after the bacterial challenge. The dose administration to mice was set as follows: teicoplanin (1) or r6,C8-Tei analog (14) 20 mgkg^−1 was intraperitoneally injected to MRSA-infected mice; amikacin (15 mgkg^−1), teicoplanin (1) (30 mgkg^−1), kanamycin (30 mgkg^−1) or r1,Me2-r6,guanidino-C8 analog (24) (30 mgkg^−1) was intraperitoneally injected to AB-infected mice. To assess bacteraemia, the test animals were sacrificed to collect 1 mL of peritoneal fluid (PF) for MRSA counting or the lungs were lavaged to collect 0.6 mL bronchoalveolar lavage (BAL) fluid for A. baumannii counting.
For AB (ATCC 19606), female C57BL/6 mice were first anesthetized by intraperitoneal injection of zoletil and then intranasally inoculated with 50 μL of bacteria in a PBS solution (about 10^7-10^8 CFUmL^−1). The treatment started 1 hour post-infection with a single dose of compound 24 (30 mgkg^−1), compound 1 (30 mgkg^−1), amikacin (15 mgkg^−1), or kanamycin (30 mgkg^−1), where saline/compound 1 and amikacin/kanamycin respectively served as negative and positive controls. To assess the density of bacteraemia, the lungs of mice were lavaged to collect 0.6 mL bronchoalveolar lavage (BAL) fluid from each mouse at 24 hours post-inoculation. For saline/compound 1 treated controls, the bacterial load was counted (about 4 log CFUmL^−1, FIG. 4B), where the bacterial load was reduced by 0.5 or 1 log CFUmL^−1 with the treatment of amikacin/kanamycin or compound 24, respectively.

[16] = test system: MRSA ATCC 700787; assay: Thin-section TEM, cell wall morphology; format: cell-based, Staphylococcus aureus
Method: Thin-Section Transmission Electron Microscopy (TEM)
An overnight cultured MRSA ATCC 700787, VRE ATCC 700221 or A. baumannii ATCC 19606 was individually sub-cultured into a fresh medium. Bacteria at the exponential phase were treated with a given test compound at a concentration of 4×MIC for 1-4 hour at 37° C. and followed by wash and resuspension in PBS. Bacteria cells for the TEM analysis were prepared as follows: Cells were fixed with 2.5% glutaraldehyde for 30 minutes. After the fixation, cells were washed twice with PBS and fixed with 1% osmium tetraoxide for another 30 minutes. All the buffer was removed with distilled water. The cells were then stained with 1% uranyl acetate and dehydrated with a graded ethanol solution. Cells were embedded in resin. Finally, each sample was cut into thin slices of approximately 90 nm with a glass knife and stained with uranyl acetate. The images of bacterial morphological were recorded.
The cell wall/membrane apparently is the targets, while the extent of damage depends on what compound imposes on the strain. […] Cell wall thickening has been a common phenotype in clinical MRSA isolates, which may well be a phenotypic determinant for VRSA. The systemic cell-wall damage may account for the cell-wall biosynthesis crippled all over the cell surface in cell-wall thickening strains, thus leading cells to lysis as a result of the osmotic pressure of cytoplasm.

[17] = A. baumannii ATCC 19606, Table 3, first figure of cell
[18] = A. baumannii ATCC 19606, Table 3, second figure of cell

MIC ([2]; MRSA ATCC 700698 hVISA): 1 mg/L (≈ 0.699 µM)
MIC ([3]; SA ATCC 29213): 0.25 mg/L (≈ 0.175 µM)
MIC ([4]; MRSA ATCC 700789 VRSA): 2 mg/L (≈ 1.4 µM)
MIC ([5]; MRSA ATCC 43300): 0.25 mg/L (≈ 0.175 µM)
MIC ([6]; MRSA ATCC BAA-39): 0.125 mg/L (≈ 0.0874 µM)
MIC ([7]; MRSA ATCC BAA-38): 0.25 mg/L (≈ 0.175 µM)
MIC ([8]; MRSA ATCC 700787 VRSA): 0.5 mg/L (≈ 0.35 µM)
MIC ([9]; MRSA ATCC BAA-44): 0.125 mg/L (≈ 0.0874 µM)
MIC ([10]; VRE ATCC 700802 (vanB)): 4 mg/L (≈ 2.8 µM)
MIC ([11]; VRE ATCC 700425 (vanC)): 4 mg/L (≈ 2.8 µM)
MIC ([12]; VRE ATCC 700221 (vanA)): >128 mg/L
MIC [13, 17]: > 200 µM
MIC [13, 18]: > 285.67 µg/mL
Compound: CC(=O)N[C@H]1[C@H](O[C@@H]2c3ccc(c(Cl)c3)Oc3cc4cc(c3O)Oc3ccc(cc3Cl)C[C@H]3NC(=O)[C@H](N(C)C)c5ccc(O)c(c5)Oc5cc(O)cc(c5)[C@H](NC3=O)C(=O)N[C@H]4C(=O)N[C@H]3C(=O)N[C@@H]2C(=O)N[C@H](C(=O)O)c2cc(O)cc(O)c2-c2cc3ccc2O)O[C@H](CO)[C@@H](O)[C@@H]1O [Compound 10, r1,Me2-6,GlcNAc Tei-pseudoaglycone]
MIC ([1]; EF ATCC 29302): 2 mg/L (≈ 1.4 µM)

Compound: colistin sulfate [reference compound]
cell membrane/cell wall morphology by TEM [14]: intactness of cell membrane/cell wall was severely damaged
MIC on AB ([13]; A. baumannii ATCC 19606): 1.98 mg/L
MIC [13, 17]: 1.56 µM
MIC [13, 18]: 1.98 µg/mL

Compound: NCC[C@H](O)C(=O)N[C@@H]1C[C@H](N)[C@@H](O[C@H]2O[C@H](CN)[C@@H](O)[C@H](O)[C@H]2O)[C@H](O)[C@H]1O[C@H]1O[C@H](CO)[C@@H](O)[C@H](N)[C@H]1O [amikacin]
bacterial load reduced by [15]: 0.5 log CFUmL^−1

Compound: CN[C@H](CC(C)C)C(=O)N[C@H]1C(=O)N[C@@H](CC(N)=O)C(=O)N[C@H]2C(=O)N[C@H]3C(=O)N[C@H](C(=O)N[C@H](C(=O)O)c4cc(O)cc(O)c4-c4cc3ccc4O)[C@H](O)c3ccc(c(Cl)c3)Oc3cc2cc(c3O[C@@H]2O[C@H](CO)[C@@H](O)[C@H](O)[C@H]2O[C@H]2C[C@](C)(N)[C@H](O)[C@H](C)O2)Oc2ccc(cc2Cl)[C@H]1O [Compound 2, vancomycin, reference compound]
MIC ([1]; Enterococcus faecalis, ATCC29302): 2 mg/L (≈ 1.38 µM)
MIC ([2]; Staphylococcus aureus): 4 mg/L (≈ 2.76 µM)
MIC ([3]; Staphylococcus aureus, ATCC29213): 1 mg/L (≈ 0.69 µM)
MIC ([4]; Staphylococcus aureus): 16 mg/L (≈ 11 µM)
MIC ([5]; Staphylococcus aureus): 1 mg/L (≈ 0.69 µM)
MIC ([6]; Staphylococcus aureus): 1 mg/L (≈ 0.69 µM)
MIC ([7]; Staphylococcus aureus): 1 mg/L (≈ 0.69 µM)
MIC ([8]; Staphylococcus aureus): 16 mg/L (≈ 11 µM)
MIC ([9]; Staphylococcus aureus): 2 mg/L (≈ 1.38 µM)
cell wall morphology by TEM [16]: floppy
MIC ([10]; Enterococcus): 64 mg/L (≈ 44.2 µM)
MIC ([11]; Enterococcus): 16 mg/L (≈ 11 µM)
MIC ([12]; Enterococcus): > 128 mg/L
MIC ([13]; Acinetobacter baumannii, ATCC19606): 200 µM and 297 µg/mL
MIC ([13]; Acinetobacter baumannii, ATCC19606, read-out: MIC on AB): > 190 µg/mL
